# pIC50: −log10 of the molar value.
# Tests used:
# [1] = system: VEGF receptors; assay: Inhibition of binding of 125I-VEGF to surface receptors on endothelial cells; conditions: 125I-VEGF 10 ng/ml, 2 h at 4° C., read-out: I50, inhibition of the binding of VEGF to the high-affinity receptors
# Procedure: (§1) The inhibition of the binding of VEGF to the surface receptors (Table 1) is measured in the following manner. VEGF is radiolabeled with ^125I-Na, and 10 ng/ml are incubated with endothelial cells for 2 h at 4° C. The radioactivity bound to the receptors is then determined. The specific binding is estimated by subtracting the nonspecific binding from the total binding (in the presence of a 100-fold excess of cold ligand relative to the hot ligand). The I50 is the concentration which inhibits specific binding by 50%.
# (§2) A more detailed description of these measurements of I50 may be found in Jouan et al. and in Perollet et al. cited above.
# [2] = system: proteoglycans; assay: Inhibition of binding of 125I-FGF-2 to proteoglycans on endothelial cells; conditions: 125I-FGF-2 10 ng/ml, 2 h at 4° C., read-out: I50, inhibition of the binding of FGF-2 to proteoglycans
# Procedure: as §1, with “of FGF-2” for “of VEGF”, “the proteoglycans” for “the surface receptors”, “(Table 2)” for “(Table 1)”, “manner. FGF-2” for “manner. VEGF”, “the proteoglycans” for “the receptors”, “cold […]” for “cold ligand”
# as §2
# [3] = system: proliferation induced by FGF-2; assay: Inhibition of the biological activity of FGF-2 (FGF-2-induced cell proliferation, cell count); assay type: cell-based; conditions: 20 000 cells, 10 ng/ml FGF-2, DMEM 1% FCS, counted on day 6; read-out: I50, inhibition of cell proliferation
# Procedure: The inhibition of the biological activity of FGF-2 (Table 3) is measured in the following manner: 20 000 cells are incubated with 10 ng/ml of FGF-2 in DMEM medium containing 1% fetal calf serum (FCS) in dishes 3.5 cm in diameter in the presence or in the absence of peptide. The cells are counted on the 6 day using a Coulter counter. The experiments are carried out in duplicate. The I50 is the concentration which inhibits the proliferation induced by FGF-2 by 50%.
# as §2
# [4] = system: FGF-2 high-affinity receptors; assay: Inhibition of binding of 125I-FGF-2 to high-affinity receptors on endothelial cells; conditions: 125I-FGF-2 10 ng/ml, 2 h at 4° C., read-out: I50, inhibition of the binding of FGF-2 to the high-affinity receptors
# Procedure: The inhibition of the binding of FGF-2 to high-affinity receptors (Table 1) is measured in the following manner. FGF-2 is radiolabeled with ^125I-Na, and 10 ng/ml are incubated with endothelial cells for 2 h at 4° C. The radioactivity bound to high-affinity receptors is then determined. The specific binding is estimated by subtracting the nonspecific binding from the total binding (in the presence of a 100-fold excess of cold ligand relative to the hot ligand). The I50 is the concentration which inhibits specific binding by 50%.
# as §2
# [5] = system: angiogenesis; assay: Inhibitory activity tests of the fusion peptide (method not described); conditions: test not specified
Substance,pIC50 [1],pIC50 [2],pIC50 [3],pIC50 [4],Inhibitory activity compared with native PF-4 or fragment 47-70 [5]
Peptide 47-70 DLR: PF-4 fragment 47-70 with glutamine in position 56 replaced by arginine (SEQ. ID. No:3) (NGRKICLDLRAPLYKKIIKKLLES; SEQ ID NO. 3 is the 47-70 fragment of mutated PF-4 SEQ ID. NO. 2),6.52,6.22,6.40,6.52,–
fusion peptide 17-34/47-70: fusion peptide 17-34/47-70 derived from PF-4; the mutated form is SEQ. ID. No:4 (SQVRPRHITSLEVIKAGPNGRKICLDLRAPLYKKIIKKLLES; SEQ ID NO. 4 is the 17-34/47-70 fragment of mutated PF-4 SEQ. ID NO. 2.) [fusion peptide 17-34/47-70 derived from PF-4; ID; No:4],–,–,–,–,inhibitory activity greater than that of native PF-4 or of fragment 47-70
"Peptide 47-70 DLQ: nonmutated PF-4 fragment 47-70, control peptide used as comparative example (NGRKICLDLQAPLYKKIIKKLLES; Platelet factor 4; UniProt P02776 78-101, looked up, fragment) [reference compound]",5.82,5.46,5.55,5.82,–

# Reference: US20040086999A1, “Mutated-pf-4, its fragments and mutated fusion peptides, their analogues, corresponding dna, cdna and mrna sequences and their use for inhibiting angiognesis” (priority 2000, published 2004)
